Tested on: RSV strain A2
Test: RSV antiviral cytoprotection assay in Hep2 cells (96-well and 384-well format, Cell TiterGlo read-out)
Assay type: cell-based, Respiratory Syncytial Virus (RSV)
Details: human respiratory syncytial virus; for inhibition at 0.5 µM: HEp-2, 0.5 uM, RSV-induced cytopathic effect in Hep2 cells, calculated from fitted dose response curve, normalized to 0% and 100%; for EC50: HEp-2, RSV-induced cytopathic effects, Hep2 cells, class symbols

Structure (SMILES) | EC50 [nM] | inhibition at 0.5 µM [%]
Cc1ccc(NS(C)(=O)=O)c(C(=O)N2CCCC[C@H]2c2cc3nc(N4CCC4)c(C)cn3n2)c1 [Compound 189] | 0.1 to 100 | 100
Cc1ccc(NS(C)(=O)=O)c(C(=O)N2CCCC[C@H]2c2cc3nc(N4CC[C@H](N)C4)c(C)cn3n2)c1 [Compound 190] | 0.1 to 100 | 100
Cc1ccc(NS(C)(=O)=O)c(C(=O)N2CCCC[C@H]2c2cc3nc(N4CC(N)C4)c(C)cn3n2)c1 [Compound 191] | 0.1 to 100 | 100
Cc1cn2nc([C@@H]3CCCCN3C(=O)c3cc(N)ccc3NS(C)(=O)=O)cc2nc1N1CC(O)C1 [Compound 192] | 0.1 to 100 | 100
CS(=O)(=O)Nc1ccc(N)cc1C(=O)N1CCCC[C@H]1c1cc2nc(N3CCC3)cc(N3CCOCC3)n2n1 [Compound 193] | 0.1 to 100 | 100
Cc1cn2nc([C@@H]3CCCCN3C(=O)c3cc(Cl)ccc3NS(C)(=O)=O)cc2nc1N1C[C@H](O)[C@@H](O)C1 [Compound 197] | 0.1 to 100 | 100
Cc1cn2nc([C@@H]3CCCCN3C(=O)c3cc(Cl)ccc3NS(C)(=O)=O)cc2nc1N1CCC[C@H]1C#N [Compound 200] | 0.1 to 100 | 95
Cc1cn2nc([C@@H]3CCCCN3C(=O)c3cc(Cl)ccc3NS(C)(=O)=O)cc2nc1N1C[C@@H](N)C2(CC2)C1 [Compound 201] | 101 to 1000 | 64
Cc1cn2nc([C@@H]3CCCCN3C(=O)c3cc(Cl)ccc3NS(C)(=O)=O)cc2nc1N1CCC[C@H]1CN [Compound 203] | 101 to 1000 | 86
Cc1cn2nc([C@@H]3CCCCN3C(=O)c3cc(Cl)ccc3NS(C)(=O)=O)cc2nc1N1CC[C@@H](C)C1 [Compound 204] | 0.1 to 100 | 98
Cc1cn2nc([C@@H]3CCCCN3C(=O)c3cc(Cl)ccc3NS(C)(=O)=O)cc2nc1N1CCC[C@H]1CN1CCCC1 [Compound 206] | 0.1 to 100 | 99
Cc1cn2nc([C@@H]3CCCCN3C(=O)c3cc(Cl)ccc3NS(C)(=O)=O)cc2nc1N1CCC(Oc2ccccc2)C1 (some centres unmarked) [Compound 208] | 0.1 to 100 | 95
Cc1cn2nc([C@@H]3CCCCN3C(=O)c3cc(Cl)ccc3NS(C)(=O)=O)cc2nc1N1CCC(c2ccccn2)C1 (some centres unmarked) [Compound 209] | 101 to 1000 | 88
Cc1cn2nc([C@@H]3CCCCN3C(=O)c3cc(Cl)ccc3NS(C)(=O)=O)cc2nc1N1C[C@@H](N)C[C@H]1CO [Compound 211] | 0.1 to 100 | 100
Cc1cn2nc([C@@H]3CCCCN3C(=O)c3cc(Cl)ccc3NS(C)(=O)=O)cc2nc1N1CC(CO)C1 [Compound 213] | 0.1 to 100 | 99
Cc1cn2nc([C@@H]3CCCCN3C(=O)c3cc(Cl)ccc3NS(C)(=O)=O)cc2nc1N1CCC(N)CC1 [Compound 216] | 0.1 to 100 | 100
CC(C)(C)OC(=O)N1CCN(c2cc(C3CC3)nc3cc([C@@H]4CCCCN4C(=O)c4cc(Cl)ccc4NS(C)(=O)=O)nn23)CC1 [Compound 226] | 0.1 to 100 | 100
CS(=O)(=O)Nc1ccc(Cl)cc1C(=O)N1CCCC[C@H]1c1cc2nc(N3CCC3)cc(N3CC[C@H](N)C3)n2n1 [Compound 227] | 0.1 to 100 | 100
CS(=O)(=O)Nc1ccc(Cl)cc1C(=O)N1CCCC[C@H]1c1cc2nc(N3CCC3)cc(N3CCC(N)CC3)n2n1 [Compound 233] | 0.1 to 100 | 100
Cc1cc(C2CC2)nc2cc([C@@H]3CCCCN3C(=O)C(NC(=O)OC(C)(C)C)c3ccccc3)nn12 (some centres unmarked) [Compound 242] | 101 to 1000 | 72
CC(=O)Nc1c(Cl)ccc(Cl)c1C(=O)N1CCCC[C@H]1c1cc2[nH]c(C)c(C)c(=O)n2n1 [Compound 245] | 0.1 to 100 | 92
CC(=O)Nc1c(Cl)cc(C)cc1C(=O)N1CCCC[C@H]1c1cc2nc(C)c(C)c(N(C)C)n2n1 [Compound 246] | 0.1 to 100 | 98
CS(=O)(=O)Nc1ccc(Cl)cc1C(=O)N1CCCC[C@H]1c1cc2nc(N3CCC3)cc(N3CCCCN3)n2n1 [Compound 252] | 0.1 to 100 | 92

Continued, in another order:

EC50 [nM] | Structure (SMILES) | inhibition at 0.5 µM [%]
0.1 to 100 | Cc1ccc(NS(C)(=O)=O)c(C(=O)N2CCCC[C@H]2c2cc3nc(N4CCC4)cc(N4CCOCC4)n3n2)c1 [Compound 194] | 100
0.1 to 100 | Cc1cn2nc([C@@H]3CCCCN3C(=O)c3cc(Cl)ccc3NS(C)(=O)=O)cc2nc1N1CC[C@@H](CO)C1 [Compound 198] | 95
0.1 to 100 | Cc1cn2nc([C@@H]3CCCCN3C(=O)c3cc(Cl)ccc3NS(C)(=O)=O)cc2nc1N1CC[C@H](N)C1 [Compound 202] | 100
0.1 to 100 | Cc1cn2nc([C@@H]3CCCCN3C(=O)c3cc(Cl)ccc3NS(C)(=O)=O)cc2nc1N1CCC(C)(C#N)C1 (some centres unmarked) [Compound 205] | 91
101 to 1000 | Cc1cn2nc([C@@H]3CCCCN3C(=O)c3cc(Cl)ccc3NS(C)(=O)=O)cc2nc1N1CCC[C@H]1CO [Compound 210] | 81
101 to 1000 | Cc1cn2nc([C@@H]3CCCCN3C(=O)c3cc(Cl)ccc3NS(C)(=O)=O)cc2nc1N1CC(Oc2ccccn2)C1 [Compound 212] | 88
0.1 to 100 | Cc1cn2nc([C@@H]3CCCCN3C(=O)c3cc(Cl)ccc3NS(C)(=O)=O)cc2nc1N1CCC(C#N)CC1 [Compound 215] | 99
101 to 1000 | Cc1cn2nc([C@@H]3CCCCN3C(=O)c3cc(Cl)ccc3NS(C)(=O)=O)cc2nc1N1CCCC(O)C1 (some centres unmarked) [Compound 217] | 89
101 to 1000 | Cc1cn2nc([C@@H]3CCCCN3C(=O)c3cc(Cl)ccc3NS(C)(=O)=O)cc2nc1N1CCC(O)CC1 [Compound 218] | 72
0.1 to 100 | Cc1cn2nc([C@@H]3CCCCN3C(=O)c3cc(Cl)ccc3NC(=O)C3CC3)cc2nc1N1CC[C@H](N)C1 [Compound 219] | 100
0.1 to 100 | COC(=O)Nc1ccc(Cl)cc1C(=O)N1CCCC[C@H]1c1cc2nc(N3CC[C@H](N)C3)c(C)cn2n1 [Compound 220] | 100
0.1 to 100 | CC(=O)Nc1ccc(C)cc1C(=O)N1CCCC[C@H]1c1cc2nc(N3CC(O)C3)c(C)cn2n1 [Compound 221] | 100
0.1 to 100 | CC(=O)Nc1ccc(C)cc1C(=O)N1CCCC[C@H]1c1cc2nc(N3CC(N)C3)c(C)cn2n1 [Compound 222] | 100
0.1 to 100 | CC(=O)Nc1ccc(Cl)cc1C(=O)N1CCCC[C@H]1c1cc2nc(N3CC[C@H](N)C3)c(C)cn2n1 [Compound 223] | 100
0.1 to 100 | CC(=O)Nc1ccc(Cl)cc1C(=O)N1CCCC[C@H]1c1cc2nc(N3CC(O)C3)c(C)cn2n1 [Compound 224] | 100
0.1 to 100 | Cc1cn2nc([C@@H]3CCCCN3C(=O)c3c(C)cccc3NS(C)(=O)=O)cc2nc1N1CCC1 [Compound 225] | 100

EC50 [nM] | Structure (SMILES) | inhibition at 0.5 µM [%]
0.1 to 100 | CS(=O)(=O)Nc1ccc(Cl)cc1C(=O)N1CCCC[C@H]1c1cc2nc(N3CC[C@@H](C#N)C3)cc(N3CCOCC3)n2n1 [Compound 228] | 100
0.1 to 100 | Cc1cn2nc([C@@H]3CCCCN3C(=O)c3cc(Cl)ccc3NS(C)(=O)=O)cc2nc1N1CCC[C@@H](N)C1 [Compound 231] | 98
0.1 to 100 | Cc1cn2nc([C@@H]3CCCCN3C(=O)c3cc(Cl)ccc3NS(C)(=O)=O)cc2nc1N1CC[C@@H](N)C1 [Compound 232] | 100
0.1 to 100 | Cc1cn2nc([C@@H]3CCCCN3C(=O)c3cc(Cl)ccc3NS(C)(=O)=O)cc2nc1NCCNCCO [Compound 235] | 99
0.1 to 100 | Cc1ccc(NS(C)(=O)=O)c(C(=O)N2CCCC[C@H]2c2cc3nc(C)c(C)c(N4CCCCC4)n3n2)c1 [Compound 236] | 98
0.1 to 100 | Cc1cc(C2CC2)nc2cc([C@@H]3CCCCN3C(=O)C(NC(=O)OC(C)(C)C)c3ccccc3Br)nn12 (some centres unmarked) [Compound 237] | 99
101 to 1000 | Cc1cc(C2CC2)nc2cc([C@@H]3CCCCN3C(=O)C(NC(=O)OC(C)(C)C)c3cccc(Cl)c3)nn12 (some centres unmarked) [Compound 238] | 100
101 to 1000 | Cc1cc(C2CC2)nc2cc([C@@H]3CCCCN3C(=O)C(c3ccccc3)N(C)C)nn12 (some centres unmarked) [Compound 239] | 36
101 to 1000 | Cc1cc(C2CC2)nc2cc([C@@H]3CCCCN3C(=O)[C@](C)(NS(C)(=O)=O)c3ccccc3)nn12 [Compound 240] | 71
0.1 to 100 | Cc1cc(C2CC2)nc2cc([C@@H]3CCCCN3C(=O)C(NS(C)(=O)=O)c3ccccc3)nn12 (some centres unmarked) [Compound 241] | 99
0.1 to 100 | Cc1cn2nc([C@@H]3CCCCN3C(=O)c3cc(Cl)ccc3NS(C)(=O)=O)cc2nc1N1CC(OP(=O)(O)O)C1 [Compound 244] | 88
0.1 to 100 | CS(=O)(=O)Nc1ccc(Cl)cc1C(=O)N1CCCC[C@H]1c1cc2nc(NCCO)cc(N3CCOCC3)n2n1 [Compound 247] | 94
0.1 to 100 | CC(=O)Nc1ccc(Cl)cc1C(=O)N1CCCC[C@H]1c1cc2nc(N3CC(N)C3)c(C)cn2n1 [Compound 248] | 100
0.1 to 100 | Cc1cn2nc([C@@H]3CCCCN3C(=O)c3cc(Cl)ccc3NC(=O)OC(C)C)cc2nc1N1CC[C@H](N)C1 [Compound 249] | 86
0.1 to 100 | Cc1cn2nc([C@@H]3CCCCN3C(=O)c3cc(Cl)ccc3NS(C)(=O)=O)cc2nc1N1CC(N)C(F)C1 (some centres unmarked) [Compound 250] | 90
101 to 1000 | Cc1ccc(NS(C)(=O)=O)c(C(=O)N2CCC(C(F)(F)F)CC2c2cc3[nH]c(C)c(C)c(=O)n3n2)c1 (centres unmarked) [Compound 251] | 73
